The values below come from US20080255192A1, “Methods and Compositions for Selectin Inhibition” (Wyeth, priority 2007, published 2008).

Molecules are shown by their SMILES.

For this assay, the target named is T1, P-selectin/PSGL-1 interaction (Homo sapiens, UniProt P16109).
T1 construct: comprised of the lectin and epidermal growth factor-like (EGF) domains expressed in CHO cells; made in house; host or cells: CHO cells (P-LE)
T1 sequence (P16109 42-198): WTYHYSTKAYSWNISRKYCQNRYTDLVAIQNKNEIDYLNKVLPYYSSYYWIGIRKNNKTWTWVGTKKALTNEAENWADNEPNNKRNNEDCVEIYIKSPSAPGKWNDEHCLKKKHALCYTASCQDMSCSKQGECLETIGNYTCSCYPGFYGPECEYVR
The assay is described as follows: Biacore P-Selectin/PSGL-1 Inhibition Assay (surface plasmon resonance). It counts as binding. The note with it: 250 uM test compound, 500 nM P.LE, immobilized PSGL-1 19ek, 10% DMSO, pH 7.4. Here is the method: Surface plasmon resonance assays were performed on a Biacore 3000 instrument (Biacore Inc. Piscataway, N.J.) at 25° C. at a flow rate of 30 μL/minute and each assay consisted of a 60-second equilibration, a 60-μL sample injection (kinject), and a 300-second dissociation.
A purified, monomeric, truncated form of human PSGL-1, “19ek”, that contained all the necessary P-selectin binding determinants (see Goetz, et al., J. Cell Biol., 1997, 137: 509-519; and Sako, et al., Cell, 1995, 83: 323-331) was biotinylated via amine chemistry (Sulfo-NHS-LC-Biotin, Peirce) at a unique C-terminal lysine residue (see Somers, et al., Cell, 2000, 103: 467-479) and immobilized on a Biacore SA sensor chip (Biacore Inc.), using an HBS-EP buffer (Biacore Inc.), and the target 600-700 RU. The coated chip was re-equilibrated with an HBS-P buffer (Biacore Inc.) to which 1 mM CaCl2 and 1 mM MgCl2 (both from Fisher) were added to ensure sufficient calcium for the calcium-dependent interaction between the receptor and the ligand.
Test compounds were incubated for 1 hour in a 1.1× Biacore assay buffer. Each solution was centrifuged through a 0.2 µm filter, using a 96-well plate format (Millipore). Glycyrrhizin tri-sodium salt (TCI) was prepared as a positive control in parallel with the test compounds, in the same manner described above.
A soluble recombinant truncated form of human P-selectin, P-LE, comprised of the lectin and epidermal growth factor-like (EGF) domains expressed in CHO cells (see Somers, et al., Cell, 2000, 103: 467-479) was added to each filtered test compound solution. Final concentrations of reagents were 500 nM P.LE, 250 or 500 μM test compound (depending on structure) or 1 mM glycyrrhizin, 10% DMSO, and 1× Biacore buffer ([…], 150 mM NaCl, 1 mM CaCl2, and 1 mM MgCl2 (all reagents from Fisher)), with a pH of 7.4. Compounds active at 250 μM were titrated to further define activity. Test samples were supplied to the Biacore instrument in a 96-well plate.
The Biacore raw data file was exported as a text file to an Excel spreadsheet, where the buffer blanks bracketing the samples were averaged for each Biacore instrument flow cell (Fc), and subtracted from the averaged uninhibited P.LE samples and from all the other samples. The reference signal from Fcl (uncoated) was then subtracted from its corresponding active (coated) signal for each injection, a process known as double referencing (see Myszka, J. Mol. Recognit., 1999, 12(5): 279-284). The percent inhibition of binding was calculated by dividing the reference-subtracted inhibited signal by the reference-subtracted uninhibited signal, subtracting this value from 1, and multiplying the resulting value by 100. The replicate percent inhibition values were averaged and expressed as the mean ±standard deviation. The inter-experiment standard deviation of calculated percent inhibitions in the Biacore assay was ±5.
As a reminder, the inhibition is the share of the control response that was lost under treatment. Read a low inhibition as a weak effect. `O=C(O)c1c(O)c(C2(c3ccc(Cl)cc3)CCC2)nc2c(C(F)(F)F)cccc12` [Compound 58, 2-(1-(4-chlorophenyl)cyclobutyl)-3-hydroxy-8-(trifluoromethyl)quinoline-4-carboxylic acid] came in with an inhibition at 250 µM not above 10%.
The same measure for `O=C(O)c1c(O)c(C2(c3ccsc3)CC2)nc2c(C(F)(F)F)cccc12` [Compound 59, 3-hydroxy-2-(1-(thiophen-3-yl)cyclopropyl)-8-(trifluoromethyl)quinoline-4-carboxylic acid]: not above 10%; for `O=C(O)c1c(O)c(C2(c3cccs3)CC2)nc2c(C(F)(F)F)cccc12` [Compound 60, 3-hydroxy-2-(1-(thiophen-2-yl)cyclopropyl)-8-(trifluoromethyl)quinoline-4-carboxylic acid]: 15%; for `O=C(O)c1c(O)c(C2(c3ccc(F)cc3)CC2)nc2c(C(F)(F)F)cccc12` [Compound 61, 2-(1-(4-fluorophenyl)cyclopropyl)-3-hydroxy-8-(trifluoromethyl)quinoline-4-carboxylic acid]: 56%.
The same measure for `CC(C)c1cccc2c(C(=O)O)c(O)c(C3(c4ccc(F)cc4)CC3)nc12` [Compound 62, 2-(1-(4-fluorophenyl)cyclopropyl)-3-hydroxy-8-isopropylquinoline-4-carboxylic acid]: 67%.
The same measure for `O=C(O)c1c(O)c(C2(c3ccccc3C(F)(F)F)CC2)nc2c(C(F)(F)F)cccc12` [Compound 63, 3-hydroxy-8-(trifluoromethyl)-2-(1-(2-(trifluoromethyl)phenyl)cyclopropyl)quinoline-4-carboxylic acid]: 17%; for `Cc1cc(C)c2nc(C3(c4ccccc4)CC3)c(O)c(C(=O)O)c2c1` [Compound 64, 3-hydroxy-6,8-dimethyl-2-(1-phenylcyclopropyl)quinoline-4-carboxylic acid]: 20%; for `CCc1cccc2c(C(=O)O)c(O)c(C3(c4ccc(F)cc4)CC3)nc12` [Compound 65, 8-ethyl-2-(1-(4-fluorophenyl)cyclopropyl)-3-hydroxyquinoline-4-carboxylic acid]: 31%.
For `CCc1ccc2c(C(=O)O)c(O)c(C3(c4ccc(F)cc4)CC3)nc2c1` [Compound 66, 7-ethyl-2-(1-(4-fluorophenyl)cyclopropyl)-3-hydroxyquinoline-4-carboxylic acid], the inhibition at 250 µM was not above 10%.
The same measure for `O=C(O)c1c(O)c(C2(c3ccc(F)cc3)CC2)nc2ccc(Cl)cc12` [Compound 67, 6-chloro-2-(1-(4-fluorophenyl)cyclopropyl)-3-hydroxyquinoline-4-carboxylic acid]: not above 10%.
In turn, `O=C(O)c1c(O)c(C2(c3ccc(F)cc3)CC2)nc2cc(Cl)ccc12` [Compound 68, 7-chloro-2-(1-(4-fluorophenyl)cyclopropyl)-3-hydroxyquinoline-4-carboxylic acid] displayed an inhibition at 250 µM not above 10%.
The compound `Cc1cc(C)c2nc(C3(c4ccc(F)cc4)CC3)c(O)c(C(=O)O)c2c1` [Compound 69, 2-(1-(4-fluorophenyl)cyclopropyl)-3-hydroxy-6,8-dimethylquinoline-4-carboxylic acid] yielded an inhibition at 250 µM of 11%.
Consider `CCc1ccc2nc(C3(c4ccc(F)cc4)CC3)c(O)c(C(=O)O)c2c1` [Compound 70, 6-ethyl-2-(1-(4-fluorophenyl)cyclopropyl)-3-hydroxyquinoline-4-carboxylic acid], for which at 250 µM the inhibition was 10%.
The same measure for `O=C(O)c1c(O)c(C2(c3ccc(F)cc3)CC2)nc2c(-c3ccsc3)cccc12` [Compound 71, 2-(1-(4-fluorophenyl)cyclopropyl)-3-hydroxy-8-(thiophen-3-yl)quinoline-4-carboxylic acid]: 64%.
The same measure for `O=C(O)c1c(O)c(C2(c3ccc(F)cc3)CC2)nc2ccc(Br)cc12` [Compound 72, 6-bromo-2-(1-(4-fluorophenyl)cyclopropyl)-3-hydroxyquinoline-4-carboxylic acid]: 12%; for `O=C(O)c1c(O)c(C2(c3ccc(F)cc3)CC2)nc2c(Cl)cccc12` [Compound 73, 8-chloro-2-(1-(4-fluorophenyl)cyclopropyl)-3-hydroxyquinoline-4-carboxylic acid]: not above 10%.
In turn, `O=C(O)c1c(O)c(C2(c3ccc(F)cc3)CC2)nc2cc(Br)ccc12` [Compound 74, 7-bromo-2-(1-(4-fluorophenyl)cyclopropyl)-3-hydroxyquinoline-4-carboxylic acid] yielded an inhibition at 250 µM of 10%.
The same measure for `O=C(O)c1c(O)c(C2(c3ccc(F)cc3)CC2)nc2c(Br)cccc12` [Compound 75, 8-bromo-2-(1-(4-fluorophenyl)cyclopropyl)-3-hydroxyquinoline-4-carboxylic acid]: not above 10%; for `O=C(O)c1c(O)c(C2(c3ccc(F)cc3)CC2)nc2c(C(O)(C(F)(F)F)C(F)(F)F)cccc12` [Compound 76, 2-(1-(4-fluorophenyl)cyclopropyl)-8-(1,1,1,3,3,3-hexafluoro-2-hydroxypropan-2-yl)-3-hydroxyquinoline-4-carboxylic acid]: 43%; for `O=C(O)c1c(O)c(C2(c3ccc(F)cc3)CC2)nc2c(-c3ccccc3)cccc12` [Compound 77]: 37%.
The same measure for `Cc1cccc2c(C(=O)O)c(O)c(C3(c4ccc(F)cc4)CC3)nc12` [Compound 78, 2-(1-(4-fluorophenyl)cyclopropyl)-3-hydroxy-8-methylquinoline-4-carboxylic acid]: 10%; for `COc1ccc2nc(C3(c4ccc(F)cc4)CC3)c(O)c(C(=O)O)c2c1` [Compound 79, 2-(1-(4-fluorophenyl)cyclopropyl)-3-hydroxy-6-methoxyquinoline-4-carboxylic acid]: not above 10%; for `O=C(O)c1c(O)c(C2(c3ccc(F)cc3)CC2)nc2c3c(ccc12)CCCC3` [Compound 80, 2-(1-(4-fluorophenyl)cyclopropyl)-3-hydroxy-7,8,9,10-tetrahydrobenzo[h]quinoline-4-carboxylic acid]: 59%.
The same measure for `Cc1ccc2c(C(=O)O)c(O)c(C3(c4ccc(F)cc4)CC3)nc2c1C` [Compound 81, 2-(1-(4-fluorophenyl)cyclopropyl)-3-hydroxy-7,8-dimethylquinoline-4-carboxylic acid]: 23%; for `CCc1cccc2c(C(=O)O)c(O)c(C3(c4ccc(C)cc4)CC3)nc12` [Compound 82, 8-ethyl-2-(1-p-tolylcyclopropyl)-3-hydroxyquinoline-4-carboxylic acid]: 38%; for `Cc1ccc(C2(c3nc4c(C)cccc4c(C(=O)O)c3O)CC2)cc1` [Compound 83, 8-methyl-2-(1-p-tolylcyclopropyl)-3-hydroxyquinoline-4-carboxylic acid]: 12%.
In turn, `Cc1ccc(C2(c3nc4c(C)cc(C)cc4c(C(=O)O)c3O)CC2)cc1` [Compound 84, 3-hydroxy-6,8-dimethyl-2-(1-p-tolylcyclopropyl)quinoline-4-carboxylic acid] gave an inhibition at 250 µM of 11%.
Turning to `Cc1ccc(C2(c3nc4c(C(O)(C(F)(F)F)C(F)(F)F)cccc4c(C(=O)O)c3O)CC2)cc1` [Compound 85, 8-(1,1,1,3,3,3-hexafluoro-2-hydroxypropan-2-yl)-3-hydroxy-2-(1-p-tolylcyclopropyl)quinoline-4-carboxylic acid], 250 µM produced 59% inhibition.
The same measure for `Cc1ccc(C2(c3nc4c(C(C)C)cccc4c(C(=O)O)c3O)CC2)cc1` [Compound 86, 3-hydroxy-8-isopropyl-2-(1-p-tolylcyclopropyl)quinoline-4-carboxylic acid]: 54%.
